Target: bovine cardiac myosin (Bos taurus, UniProt Q9BE39)
Assay: Myosin activation assay (PK/LDH-coupled ATPase, bovine cardiac myofibrils)
Type: biochemical
Details: AC20 = concentration at which total response is increased by twenty percent
Experimental: Small molecule agents were assessed for their ability to activate the enzymatic activity of bovine cardiac myosin using a biochemical assay that couples the release of ADP (adenosine diphosphate) from cardiac myosin to an enzymatic coupling system consisting of pyruvate kinase and lactate dehydrogenase (PK/LDH) and monitoring the absorbance decrease of NADH (at 340 nm) as a function of time. PK converts ADP to ATP (adenosine triphosphate) by converting PEP (phosphoenolpyruvate) to pyruvate. Pyruvate is then converted to lactate by LDH by converting NADH (nicotinamide adenine dinucleotide) to NAD (oxidized nicotinamide adenine dinucleotide). The source of cardiac myosin was from bovine heart in the form of skinned myofibrils. Prior to testing small molecule agents, the bovine myofibrils were assessed for their calcium responsiveness and the calcium concentration that achieves either a 50% (pCa50 or pCa=˜6) or <5% (pCa=10) activation of the myofibril system was chosen as the final condition for assessing the activation activity of the small molecule agents. All enzymatic activity was measured in a buffered solution containing 12 mM PIPES (piperazine-N,N′-bis(2-ethanesulfonic acid), 2 mM magnesium chloride at pH 6.8 (PM12 buffer). Final assay conditions were 1 mg/mL of bovine cardiac myofibrils, 0.4 mM PK/LDH, 50 uM ATP, 0.1 mg/mL BSA (bovine serum albumin), 10 ppm antifoam, 2 mM BME, 0.5 mM NADH, 1.5 mM PEP at the desired free calcium concentration required to achieve either 50% or <5% activation of the myofibrils.
A dilution series of compound was created in DMSO such that the final desired concentration of compound would be achieved in a volume of […] with a fixed DMSO concentration of 3.3% (v/v). Typically a 1 μL of the dilution series was added to a 384 well plate to achieve a 10 point dose response. Following the addition of 14 μL of a solution containing bovine cardiac myofibrils, PK/LDH and a solution of calcium (that achieved the desired activation), the enzymatic reaction was started with the addition of 15 μL of a solution containing ATP, PEP and NADH. The reaction progress was followed in a PerkinElmer Envision plate reader at ambient temperature using clear bottom plates. The plate reader was configured to read absorbance at 340 nm in kinetics mode for 15 minutes. Data were recorded as the slope of the absorbance response to time. The slopes of the absorbance response as a function of time were normalized to slopes on the plate containing DMSO. This normalized rate was then plotted as a function of small molecule concentration and the data was fitted to a four-parameter fit using EXCEL XLfit. The concentration at which the total response is increased by twenty or fifty percent is reported as AC20 or AC50.

Chain of bovine cardiac myosin (Q9BE39 whole entry): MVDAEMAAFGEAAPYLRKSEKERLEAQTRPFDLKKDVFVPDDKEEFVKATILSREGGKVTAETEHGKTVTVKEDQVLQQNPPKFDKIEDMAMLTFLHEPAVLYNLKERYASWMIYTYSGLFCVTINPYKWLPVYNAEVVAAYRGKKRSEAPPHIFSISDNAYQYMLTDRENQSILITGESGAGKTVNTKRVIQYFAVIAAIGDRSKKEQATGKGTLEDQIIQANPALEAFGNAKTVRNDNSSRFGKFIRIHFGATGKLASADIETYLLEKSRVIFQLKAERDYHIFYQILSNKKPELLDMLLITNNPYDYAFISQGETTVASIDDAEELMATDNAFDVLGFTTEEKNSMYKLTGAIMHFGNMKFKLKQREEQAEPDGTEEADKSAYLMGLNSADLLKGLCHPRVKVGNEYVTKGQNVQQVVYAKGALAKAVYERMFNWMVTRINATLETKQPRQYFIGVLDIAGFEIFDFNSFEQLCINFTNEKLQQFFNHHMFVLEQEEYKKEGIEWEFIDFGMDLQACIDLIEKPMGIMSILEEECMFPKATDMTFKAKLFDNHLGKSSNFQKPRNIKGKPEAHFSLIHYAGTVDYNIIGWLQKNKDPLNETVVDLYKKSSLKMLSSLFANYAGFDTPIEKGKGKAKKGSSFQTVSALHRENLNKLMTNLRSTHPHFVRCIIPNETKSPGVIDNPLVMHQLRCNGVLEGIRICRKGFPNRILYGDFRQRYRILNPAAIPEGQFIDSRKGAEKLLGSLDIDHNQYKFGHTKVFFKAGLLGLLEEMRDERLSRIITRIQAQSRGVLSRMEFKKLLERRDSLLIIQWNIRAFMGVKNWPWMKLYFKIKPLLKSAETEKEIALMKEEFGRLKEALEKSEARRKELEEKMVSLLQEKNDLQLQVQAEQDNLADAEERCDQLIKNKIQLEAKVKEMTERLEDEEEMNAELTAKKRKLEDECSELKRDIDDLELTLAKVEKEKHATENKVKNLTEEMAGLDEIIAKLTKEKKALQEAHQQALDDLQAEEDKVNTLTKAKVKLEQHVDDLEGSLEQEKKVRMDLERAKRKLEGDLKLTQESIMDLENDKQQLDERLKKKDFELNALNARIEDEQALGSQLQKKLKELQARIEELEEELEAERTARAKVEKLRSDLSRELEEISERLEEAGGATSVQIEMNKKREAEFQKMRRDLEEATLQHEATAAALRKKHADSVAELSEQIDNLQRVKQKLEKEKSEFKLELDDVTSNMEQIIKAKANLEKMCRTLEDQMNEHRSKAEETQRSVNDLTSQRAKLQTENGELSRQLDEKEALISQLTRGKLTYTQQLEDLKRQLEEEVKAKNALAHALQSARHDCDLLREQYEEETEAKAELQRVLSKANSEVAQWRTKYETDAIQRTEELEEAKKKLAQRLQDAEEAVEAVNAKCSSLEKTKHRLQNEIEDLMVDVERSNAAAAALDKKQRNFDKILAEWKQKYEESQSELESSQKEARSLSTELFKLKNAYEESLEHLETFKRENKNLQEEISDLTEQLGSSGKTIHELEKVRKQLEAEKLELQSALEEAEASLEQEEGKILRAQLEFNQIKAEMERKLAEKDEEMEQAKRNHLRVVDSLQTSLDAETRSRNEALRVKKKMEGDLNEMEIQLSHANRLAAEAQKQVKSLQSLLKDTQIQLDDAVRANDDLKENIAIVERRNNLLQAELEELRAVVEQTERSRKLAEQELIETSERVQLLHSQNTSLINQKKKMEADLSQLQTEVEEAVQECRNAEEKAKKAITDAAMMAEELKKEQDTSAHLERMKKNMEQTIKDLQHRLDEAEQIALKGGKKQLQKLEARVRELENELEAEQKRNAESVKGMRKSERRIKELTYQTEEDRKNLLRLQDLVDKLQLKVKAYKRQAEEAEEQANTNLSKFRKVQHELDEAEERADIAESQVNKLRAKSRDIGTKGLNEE
Chain of bovine cardiac myosin (P85100 whole entry partner): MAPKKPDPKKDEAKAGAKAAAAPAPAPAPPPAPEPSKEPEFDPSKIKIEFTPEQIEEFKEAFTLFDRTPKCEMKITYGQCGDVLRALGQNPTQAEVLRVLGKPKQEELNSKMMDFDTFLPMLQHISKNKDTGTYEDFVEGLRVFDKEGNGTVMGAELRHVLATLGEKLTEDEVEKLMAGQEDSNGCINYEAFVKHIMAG
Chain of bovine cardiac myosin (Q3SZE5 whole entry partner): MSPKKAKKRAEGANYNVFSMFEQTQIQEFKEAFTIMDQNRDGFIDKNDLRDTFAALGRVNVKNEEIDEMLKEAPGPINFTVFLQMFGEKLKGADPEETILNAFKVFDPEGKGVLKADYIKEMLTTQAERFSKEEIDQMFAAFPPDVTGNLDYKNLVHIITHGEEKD

| SMILES | Myosin Activation (AC20) |
| --- | --- |
| O=C(Nc1cnns1)N1CCC(C(F)(F)S(=O)(=O)c2cccc(F)c2)CC1 [Compound 44, 4-(difluoro((3-fluorophenyl)sulfonyl)methyl)-N-(1,2,3-thiadiazol-5-yl)piperidine-1-carboxamide] | + (+ represents myosin activation value AC20 > 5 μM) |
| C[C@@H](O)c1cc(NC(=O)N2CCC(C(F)(F)S(=O)(=O)c3cn(C)nc3C(F)F)CC2)ccn1 [Compound 100, (R)-4-(((3-(difluoromethyl)-1-methyl-1H-pyrazol-4-yl)sulfonyl)difluoromethyl)-N-(2-(1-hydroxyethyl)pyridin-4-yl)piperidine-1-carboxamide] | + (+ represents myosin activation value AC20 > 5 μM) |
| C[C@](F)(C1CCN(C(=O)Nc2ccc(CO)nc2)CC1)S(=O)(=O)c1cccc(F)c1 [Compound 286, (R)-4-(1-fluoro-1-((3-fluorophenyl)sulfonyl)ethyl)-N-(6-(hydroxymethyl)pyridin-3-yl)piperidine-1-carboxamide] | + (+ represents myosin activation value AC20 > 5 μM) |
| N#Cc1ccccc1S(=O)(=O)C1(C2CCN(C(=O)Nc3ccnnc3)CC2)CC1 [Compound 200, 4-(1-((2-cyanophenyl)sulfonyl)cyclopropyl)-N-(pyridazin-4-yl)piperidine-1-carboxamide] | ++ (++ represents myosin activation value AC20 from 2 μM-5 μM) |
| O=C(Nc1ccnnc1)N1CCC(C(F)(F)S(=O)(=O)c2ccc(-n3cncn3)cc2)CC1 [Compound 64, 4-(((4-(1H-1,2,4-triazol-1-yl)phenyl)sulfonyl)difluoromethyl)-N-(pyridazin-4-yl)piperidine-1-carboxamide] | ++ (++ represents myosin activation value AC20 from 2 μM-5 μM) |
| CC(F)(C1CCN(C(=O)Nc2ccon2)CC1)S(=O)(=O)c1cccc(C#N)c1 (stereo not drawn) [Compound 282, 4-(1-((3-cyanophenyl)sulfonyl)-1-fluoroethyl)-N-(isoxazol-3-yl)piperidine-1-carboxamide] | ++ (++ represents myosin activation value AC20 from 2 μM-5 μM) |
| CCn1nccc1S(=O)(=O)C(C)(C)C1CCN(C(=O)Nc2cnns2)CC1 [Compound 183, 4-(2-((1-ethyl-1H-pyrazol-5-yl)sulfonyl)propan-2-yl)-N-(1,2,3-thiadiazol-5-yl)piperidine-1-carboxamide] | ++ (++ represents myosin activation value AC20 from 2 μM-5 μM) |
| CC(F)(C1CCN(C(=O)Nc2ccnnc2)CC1)S(=O)(=O)c1ccc(C#N)cc1 (stereo not drawn) [Compound 270, 4-(1-((4-cyanophenyl)sulfonyl)-1-fluoroethyl)-N-(pyridazin-4-yl)piperidine-1-carboxamide] | +++ (+++ represents myosin activation value AC20 < 2 μM) |
| Cc1ccc(NC(=O)N2CCC(C(C)(C)S(=O)(=O)c3cc(C(F)(F)F)nn3C)CC2)cn1 [Compound 130, 4-(2-((1-methyl-3-(trifluoromethyl)-1H-pyrazol-5-yl)sulfonyl)propan-2-yl)-N-(6-methylpyridin-3-yl)piperidine-1-carboxamide] | ++ (++ represents myosin activation value AC20 from 2 μM-5 μM) |
| Cn1cc(NC(=O)N2CCC(C(C)(C)S(=O)(=O)c3cccc(F)c3)CC2)cn1 [Compound 139, 4-(2-((3-fluorophenyl)sulfonyl)propan-2-yl)-N-(1-methyl-1H-pyrazol-4-yl)piperidine-1-carboxamide] | + (+ represents myosin activation value AC20 > 5 μM) |
| Cc1cc(C(F)(F)F)ccc1S(=O)(=O)C(F)(F)C1CCN(C(=O)Nc2ccnnc2)CC1 [Compound 65, 4-(difluoro((2-methyl-4-(trifluoromethyl)phenyl)sulfonyl)methyl)-N-(pyridazin-4-yl)piperidine-1-carboxamide] | ++ (++ represents myosin activation value AC20 from 2 μM-5 μM) |
| Cn1cc(S(=O)(=O)C(C)(C)C2CCN(C(=O)Nc3ccc(F)nc3)CC2)c(C(F)(F)F)n1 [Compound 111, N-(6-fluoropyridin-3-yl)-4-(2-((1-methyl-3-(trifluoromethyl)-1H-pyrazol-4-yl)sulfonyl)propan-2-yl)piperidine-1-carboxamide] | ++ (++ represents myosin activation value AC20 from 2 μM-5 μM) |
| COc1ncccc1S(=O)(=O)C(C)(F)C1CCN(C(=O)Nc2ccnnc2)CC1 (stereo not drawn) [Compound 55, 4-(1-fluoro-1-((2-methoxypyridin-3-yl)sulfonyl)ethyl)-N-(pyridazin-4-yl)piperidine-1-carboxamide] | ++ (++ represents myosin activation value AC20 from 2 μM-5 μM) |
| CC(F)(C1CCN(C(=O)Nc2cnns2)CC1)S(=O)(=O)c1ccc(C(F)(F)F)cc1 (stereo not drawn) [Compound 268, 4-(1-fluoro-1-((4-(trifluoromethyl)phenyl)sulfonyl)ethyl)-N-(1,2,3-thiadiazol-5-yl)piperidine-1-carboxamide] | +++ (+++ represents myosin activation value AC20 < 2 μM) |
| C[C@@H](O)c1cc(NC(=O)N2CCC(C(F)(F)S(=O)(=O)c3cccc(F)c3)CC2)ccn1 [Compound 98, (R)-4-(difluoro((3-fluorophenyl)sulfonyl)methyl)-N-(2-(1-hydroxyethyl)pyridin-4-yl)piperidine-1-carboxamide] | + (+ represents myosin activation value AC20 > 5 μM) |
| Cn1cc(S(=O)(=O)[C@](C)(F)C2CCN(C(=O)Nc3ccon3)CC2)c(C(F)F)n1 [Compound 21, (S)-4-(1-((3-(Difluoromethyl)-1-methyl-1H-pyrazol-4-yl)sulfonyl)-1-fluoroethyl)-N-(isoxazol-3-yl)piperidine-1-carboxamide] | + (+ represents myosin activation value AC20 > 5 μM) |
| CC(C)(C1CCN(C(=O)Nc2ccon2)CC1)S(=O)(=O)c1ccc(C(F)(F)F)nc1 [Compound 113, N-(isoxazol-3-yl)-4-(2-((6-(trifluoromethyl)pyridin-3-yl)sulfonyl)propan-2-yl)piperidine-1-carboxamide] | + (+ represents myosin activation value AC20 > 5 μM) |
| Cn1nc(C(F)(F)F)cc1S(=O)(=O)C(C)(F)C1CCN(C(=O)Nc2ccc(F)nc2)CC1 (stereo not drawn) [Compound 252, 4-(1-fluoro-1-((1-methyl-3-(trifluoromethyl)-1H-pyrazol-5-yl)sulfonyl)ethyl)-N-(6-fluoropyridin-3-yl)piperidine-1-carboxamide] | ++ (++ represents myosin activation value AC20 from 2 μM-5 μM) |
| CC(C)(C1CCN(C(=O)Nc2cnns2)CC1)S(=O)(=O)c1ccc(C(F)(F)F)cc1 [Compound 182, N-(1,2,3-thiadiazol-5-yl)-4-(2-((4-(trifluoromethyl)phenyl)sulfonyl)propan-2-yl)piperidine-1-carboxamide] | +++ (+++ represents myosin activation value AC20 < 2 μM) |
| C[C@](F)(C1CCN(C(=O)Nc2ccon2)CC1)S(=O)(=O)c1ccc(OC(F)F)nc1 [Compound 312, (R)-4-(1-((6-(difluoromethoxy)pyridin-3-yl)sulfonyl)-1-fluoroethyl)-N-(isoxazol-3-yl)piperidine-1-carboxamide] | +++ (+++ represents myosin activation value AC20 < 2 μM) |
| Cc1cc(S(=O)(=O)C(F)(F)C2CCN(C(=O)Nc3ccnnc3)CC2)n(C)n1 [Compound 23, 4-(((1,3-Dimethyl-1H-pyrazol-5-yl)sulfonyl)difluoromethyl)-N-(pyridazin-4-yl)piperidine-1-carboxamide] | ++ (++ represents myosin activation value AC20 from 2 μM-5 μM) |
| CC(C)(C1CCN(C(=O)Nc2ccncc2Cl)CC1)S(=O)(=O)c1cccc(F)c1 [Compound 176, N-(3-chloropyridin-4-yl)-4-(2-((3-fluorophenyl)sulfonyl)propan-2-yl)piperidine-1-carboxamide] | + (+ represents myosin activation value AC20 > 5 μM) |
| Cn1nc(C(F)(F)F)cc1S(=O)(=O)[C@](C)(F)C1CCN(C(=O)Nc2ccon2)CC1 [Compound 229] | + (+ represents myosin activation value AC20 > 5 μM) |
| Cn1cc(S(=O)(=O)C(C)(C)C2CCN(C(=O)Nc3cccnc3)CC2)c(C(F)F)n1 [Compound 118, 4-(2-((3-(difluoromethyl)-1-methyl-1H-pyrazol-4-yl)sulfonyl)propan-2-yl)-N-(pyridin-3-yl)piperidine-1-carboxamide] | +++ (+++ represents myosin activation value AC20 < 2 μM) |
